Results published in PubChem BioAssay (NCI).
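GI50: concentration for 50% inhibition of growth. TGI: total growth inhibition.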

What was measured:
Test in all cases: growth of human tumour cells (NCI), 384-well format
[1] = system: U251 glioblastoma
[2] = system: SNB-19 CNS
[3] = system: NCI-H322M lung
[4] = system: MDA-MB-231 breast
[5] = system: OVCAR-5 ovarian
[6] = system: A498 renal
[7] = system: HCT-15 colon
[8] = system: RXF 393 renal
[9] = system: RPMI-8226 leukemia
[10] = system: SF-268 CNS
[11] = system: SF-539 CNS
[12] = system: SW-620 colon
[13] = system: TK-10 renal
[14] = system: 786-0 renal
[15] = system: HCT-116 colon
[16] = system: M14 melanoma
[17] = system: HCC-2998 colon
[18] = system: SK-MEL-28 melanoma
[19] = system: ACHN renal
[20] = system: NCI-H460 NSCLC
[21] = system: SF-295 CNS
[22] = system: EKVX NSCLC
[23] = system: HS 578T breast
[24] = system: CCRF-CEM leukemia
[25] = system: OVCAR-3 ovarian
[26] = system: MDA-MB-435 melanoma
[27] = system: MDA-MB-468 breast
[28] = system: NCI/ADR-RES ovarian
[29] = system: T-47D breast
[30] = system: KM12 colon
[31] = system: COLO 205 colon
[32] = system: SN12C renal
[33] = system: HL-60(TB) leukemia
[34] = system: OVCAR-8 ovarian
[35] = system: HOP-92 NSCLC
[36] = system: SK-MEL-5 melanoma
[37] = system: BT-549 breast
[38] = system: K-562 leukemia
[39] = system: UO-31 renal
[40] = system: MALME-3M melanoma
[41] = system: SNB-75 CNS
[42] = system: MCF7 breast
[43] = system: OVCAR-4 ovarian
[44] = system: A549 NSCLC
[45] = system: UACC-62 melanoma
[46] = system: NCI-H522 lung
[47] = system: LOX IMVI melanoma
[48] = system: CAKI-1 renal
[49] = system: IGROV1 ovarian
[50] = system: MOLT-4 leukemia
[51] = system: NCI-H226 lung
[52] = system: HOP-62 NSCLC
[53] = system: UACC-257 melanoma
[54] = system: PC-3 prostate
[55] = system: HT29 colon
[56] = system: NCI-H23 lung
[57] = system: SK-OV-3 ovarian
[58] = system: DU-145 prostate

Nc1nc2cc(CC[C@H]3C[C@@H](n4ccc5c(N)ncnc54)[C@H](O)[C@@H]3O)ccc2cc1Br
GI50 [1]: 5.85 µM | TGI [1]: 20.3 µM | GI50 [2]: 11.5 µM | TGI [2]: 23.9 µM | GI50 [3]: 0.35 µM | TGI [3]: 5.88 µM | GI50 [4]: 3.2 µM | TGI [4]: 20.5 µM | GI50 [5]: 11.4 µM | TGI [5]: 23.8 µM | GI50 [6]: 2.11 µM | TGI [6]: 11.8 µM | GI50 [7]: 9.52 µM | TGI [7]: 21.8 µM | GI50 [8]: 0.246 µM | TGI [8]: 16.3 µM | GI50 [9]: 2.14 µM | TGI [9]: 15.4 µM | GI50 [10]: < 0.01 µM | TGI [10]: 1.44 µM | GI50 [11]: 10.6 µM | TGI [11]: 22.5 µM | GI50 [12]: 11.8 µM | TGI [12]: 24.1 µM | GI50 [13]: 12.6 µM | TGI [13]: 25.4 µM | GI50 [14]: 11.5 µM | TGI [14]: 23.7 µM | GI50 [15]: 1.66 µM | TGI [15]: 15.5 µM | GI50 [16]: 10.6 µM | TGI [16]: 22.5 µM | GI50 [17]: 10.5 µM | TGI [17]: 22.5 µM | GI50 [18]: 18.2 µM | TGI [18]: 32.2 µM | GI50 [19]: 13.4 µM | TGI [19]: 26.5 µM | GI50 [20]: < 0.01 µM | TGI [20]: 1.08 µM | GI50 [21]: 12.4 µM | TGI [21]: 25.2 µM | GI50 [22]: 1 µM | TGI [22]: 16.4 µM | GI50 [23]: 11.7 µM | TGI [23]: 24.1 µM | GI50 [24]: 0.3 µM | TGI [24]: 10.4 µM | GI50 [25]: 2.88 µM | TGI [25]: 13.8 µM | GI50 [26]: 12 µM | TGI [26]: 24.5 µM | GI50 [27]: 0.0253 µM | TGI [27]: 0.433 µM | GI50 [28]: 5.73 µM | TGI [28]: 18.6 µM | GI50 [29]: < 0.01 µM | TGI [29]: 2.59 µM | GI50 [30]: 3.42 µM | TGI [30]: 20.7 µM | GI50 [31]: 4.18 µM | TGI [31]: 19.5 µM | GI50 [32]: 11.5 µM | TGI [32]: 23.8 µM | GI50 [33]: 13.8 µM | TGI [33]: 27 µM | GI50 [34]: 1.46 µM | TGI [34]: 14.3 µM | GI50 [35]: 12.4 µM | TGI [35]: 24.9 µM | GI50 [36]: 0.309 µM | TGI [36]: 2.33 µM | GI50 [37]: 4.06 µM | TGI [37]: 18.3 µM | GI50 [38]: 0.348 µM | TGI [38]: 15.5 µM | GI50 [39]: 11.9 µM | TGI [39]: 24.4 µM | GI50 [40]: 10.2 µM | TGI [40]: 21.9 µM | GI50 [41]: 1.95 µM | TGI [41]: 16.5 µM | GI50 [42]: 0.983 µM | TGI [42]: 15.8 µM | GI50 [43]: 0.4 µM | TGI [43]: 19 µM | GI50 [44]: 0.644 µM | TGI [44]: 15.8 µM | GI50 [45]: 11.5 µM | TGI [45]: 23.7 µM | GI50 [46]: 11 µM | TGI [46]: 23 µM | GI50 [47]: 0.579 µM | TGI [47]: 12.2 µM | GI50 [48]: 11.5 µM | TGI [48]: 23.9 µM | GI50 [49]: 6.55 µM | TGI [49]: 20.8 µM | GI50 [50]: < 0.01 µM | GI50 [51]: 1.62 µM | TGI [51]: 15.5 µM | GI50 [52]: 0.37 µM | TGI [52]: 12.1 µM | GI50 [53]: 1.42 µM | TGI [53]: 11.5 µM | GI50 [54]: 11.4 µM | TGI [54]: 23.7 µM | GI50 [55]: 1.85 µM | TGI [55]: 10.4 µM | GI50 [56]: 0.392 µM | TGI [56]: 18.8 µM | GI50 [57]: 12 µM | TGI [57]: 24.5 µM | GI50 [58]: 13.4 µM | TGI [58]: 26.5 µM
